Data as given in patent publication US20190054135A1, “PLANT OR MICROORGANISM-DERIVED CAROTENOID-OXYGEN COPOLYMER COMPOSITIONS, METHODS OF IDENTIFYING, QUANTIFYING AND PRODUCING SAME AND USES THEREOF” (Avivagen Inc., priority 2016, published 2019).

Columns and labels:
[1] = solubility as noted during extraction and precipitation; assay type: physicochemical; settings: pH 12-13
Procedure: Purification and concentration of GA was achieved using chloroform. The chloroform extract contained a complex mixture of substances, including carotenoids and carboxylic acids.
Indeed, addition of hexanes to an ethyl acetate extract of carrot powder #1 yielded a brown precipitate. Redissolving the recovered solid in ethyl acetate and precipitating again with hexanes and repeating the procedure gave a brown solid, which, at ca. 0.7 mg/g, was about 1.4 times the estimated OxPVA level, well within the anticipated range for the GA-based estimate (see Isolated Polymer and Polymer/OxPVA columns in Table 2). A similar ratio (1.6) was found for carrot powder #2, for which the yield of copolymer was around half that of carrot powder #1, in line with the respective relative amounts of GA. Confirmation that the isolated solid is largely composed of carotenoid-oxygen copolymer products was provided by comparison of elemental composition, IR, UV-Vis, GPC and GC-MS thermal decomposition data with the corresponding data for the OxBC polymer.

[2] = system: prostate carcinogenesis; settings: rat model of prostate carcinogenesis; cited from earlier work

solubility in water [1] | Compound | inhibition of prostate carcinogenesis [2]
soluble in water | CC(=O)CCCC(C)(C)C(=O)O [GA, geronic acid] | 
 | CC(C)=CCC/C(C)=C/C=C/C(C)=C/C=C/C(C)=C/C=C/C=C(C)/C=C/C=C(C)/C=C/C=C(\C)CCC=C(C)C [lycopene] | not lycopene alone inhibited carcinogenesis
